Tests used:
[1] = molecular target: GDP-bound NRAS wild-type protein (Homo sapiens, UniProt P01111); experiment: Binding to NRAS by surface plasmon resonance (SPR), Single Cycle Kinetics
[2] = molecular target: GDP-bound HRAS wild-type protein (Homo sapiens, UniProt P01112); experiment: Binding to HRAS by surface plasmon resonance (SPR), Single Cycle Kinetics
[3] = KD ratio, GDP-bound NRAS wild-type vs GDP-bound KRAS wild-type, SPR
[4] = KD ratio, GDP-bound HRAS wild-type vs GDP-bound KRAS wild-type, SPR
[5] = SPR, GDP-bound wild-type proteins

Sequence of GDP-bound HRAS wild-type protein (P01112 whole entry): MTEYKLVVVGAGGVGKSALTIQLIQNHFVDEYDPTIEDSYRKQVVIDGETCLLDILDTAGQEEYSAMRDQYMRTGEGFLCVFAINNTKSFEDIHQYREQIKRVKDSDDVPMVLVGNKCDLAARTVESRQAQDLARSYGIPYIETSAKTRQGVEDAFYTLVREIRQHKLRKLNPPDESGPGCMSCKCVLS
Sequence of GDP-bound NRAS wild-type protein (P01111 whole entry): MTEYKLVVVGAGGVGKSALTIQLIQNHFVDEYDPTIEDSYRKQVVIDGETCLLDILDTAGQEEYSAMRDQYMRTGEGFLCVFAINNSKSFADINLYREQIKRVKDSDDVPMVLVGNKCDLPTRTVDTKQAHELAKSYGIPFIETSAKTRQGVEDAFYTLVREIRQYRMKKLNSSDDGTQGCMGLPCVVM

CC[C@H](C)[C@@H]1NC(=O)[C@H](COC)N(C)C(=O)C[C@@H](C(=O)N2CCCCC2)N(C)C(=O)[C@H](C2CCCC2)N(C)C(=O)C2(CC(C)(C)C2)NC(=O)[C@@H]2C[C@@H](OC3CCC3)CN2C(=O)[C@H](CCc2cc(F)c(C(F)(F)F)c(F)c2)NC(=O)CN(C)C(=O)[C@H](Cc2ccc(C(F)(F)F)cc2)N2CC/C=C\C[C@@H](C2=O)N(C)C(=O)CN(C)C1=O [PP2664]
NRAS/KRAS (ratio of KD value with respect to GDP-bound NRAS wild-type protein to KD value with respect to KRAS) ([1]; class symbols): A (a compound having 10 or more and less than 20 is denoted as A)
HRAS/KRAS (ratio of KD value with respect to GDP-bound HRAS wild-type protein to KD value with respect to KRAS) ([2]; class symbols): B (a compound having 3 or more and less than 10 is denoted as B)

CCC[C@H]1C(=O)N[C@@H]([C@@H](C)CC)C(=O)N(C)CC(=O)N(C)[C@H]2C/C=C\CCN(C2=O)[C@@H](Cc2ccc(C)cc2)C(=O)N(C)CC(=O)N[C@@H](CCc2cc(F)c(C(F)(F)F)c(F)c2)C(=O)N2C[C@H](OCC)C[C@H]2C(=O)NC2(CC(C)(C)C2)C(=O)N(C)[C@@H](CC2CCC2)C(=O)N(C)[C@H](C(=O)N(C)C)CC(=O)N1C [PP2751]
NRAS/KRAS (ratio of KD value with respect to GDP-bound NRAS wild-type protein to KD value with respect to KRAS) ([1]; class symbols): A (a compound having 10 or more and less than 20 is denoted as A)
HRAS/KRAS (ratio of KD value with respect to GDP-bound HRAS wild-type protein to KD value with respect to KRAS) ([2]; class symbols): A (a compound having 10 or more and less than 20 is denoted as A)

CCCOC[C@H]1C(=O)N[C@@H]([C@@H](C)CC)C(=O)N2CCC[C@H]2C(=O)N(C)[C@H]2C/C=C\CCN(C2=O)[C@@H](Cc2ccc(C)cc2)C(=O)N(C)CC(=O)N[C@@H](CCc2ccc(C(F)(F)F)c(OC)c2)C(=O)N2C[C@H](OCC)C[C@H]2C(=O)N(C)C2(CCC2)C(=O)N(C)[C@@H](C(CC)CC)C(=O)N(C)[C@H](C(=O)N(C)C)CC(=O)N1C [PP2331]
NRAS/KRAS (ratio of KD value with respect to NRAS to KD value with respect to KRAS) ([1]; SPR, GDP-bound NRAS wild-type vs GDP-bound KRAS wild-type): AA (a compound having 20 or more is denoted as AA)
HRAS/KRAS (ratio of KD value with respect to HRAS to KD value with respect to KRAS) ([2]; SPR, GDP-bound HRAS wild-type vs GDP-bound KRAS wild-type): A (a compound having 10 or more and less than 20 is denoted as A)

CCO[C@@H]1C[C@H]2C(=O)NC3(CCC3)C(=O)N(C)[C@@H](C(CC)CC)C(=O)N3CCC[C@@H]3CC(=O)N(C)[C@@H](CC3CC3)C(=O)N[C@@H]([C@@H](C)CC)C(=O)N(C)CC(=O)N(C)[C@H]3C/C=C\CCN(C3=O)[C@@H](Cc3ccc(C(F)(F)F)cc3)C(=O)N(C)CC(=O)N[C@@H](CCc3cc(F)c(C(F)(F)F)c(F)c3)C(=O)N2C1 [PP1612]
NRAS/KRAS (ratio of KD value for NRAS to KD value for KRAS) [1, 3]: B (a compound having 3 or more and less than 10 is denoted as B)
HRAS/KRAS (ratio of KD value for HRAS to KD value for KRAS) [2, 4]: B (a compound having 3 or more and less than 10 is denoted as B)

CCC[C@H]1C(=O)N[C@@H](C2CCCC2)C(=O)N(C)CC(=O)N(C)[C@H]2C/C=C\CCN(C2=O)[C@@H](Cc2ccc(C)cc2)C(=O)N(C)CC(=O)N[C@@H](CCc2ccc(C(F)(F)F)c(OC)c2)C(=O)N2C[C@H](OCC)C[C@H]2C(=O)NC2(CC(C)(C)C2)C(=O)N(C)[C@@H](CC(C)(C)C)C(=O)N(C)[C@H](C(=O)N(C)C)CC(=O)N1C [PP3005]
NRAS/KRAS (ratio of KD value with respect to GDP-bound NRAS wild-type protein to KD value with respect to KRAS) [1, 5]: A (a compound having 10 or more and less than 20 is denoted as A)
HRAS/KRAS (ratio of KD value with respect to GDP-bound HRAS wild-type protein to KD value with respect to KRAS) [2, 5]: B (a compound having 3 or more and less than 10 is denoted as B)

CC[C@H](C)[C@@H]1NC(=O)[C@H](CC)N(C)C(=O)C[C@@H](C(=O)N(C)C)N(C)C(=O)[C@H](C2CCCC2)N(C)C(=O)C2(CCC2)NC(=O)[C@@H]2CCCN2C(=O)[C@H](CCc2cc(F)c(C(F)(F)F)c(F)c2)NC(=O)CN(C)C(=O)[C@H](Cc2ccc(C(F)(F)F)cc2)N2CC/C=C\C[C@@H](C2=O)N(C)C(=O)CN(C)C1=O [PP1135]
NRAS/KRAS (ratio of KD value with respect to NRAS to KD value with respect to KRAS) [1, 3]: A (a compound having 10 or more and less than 20 is denoted as A)
HRAS/KRAS (ratio of KD value with respect to HRAS to KD value with respect to KRAS) [2, 4]: A (a compound having 10 or more and less than 20 is denoted as A)

— patent US20250230193A1, “CYCLIC COMPOUND HAVING SELECTIVE KRAS INHIBITORY EFFECT ON HRAS AND NRAS” (CHUGAI SEIYAKU KABUSHIKI KAISHA, priority 2022, published 2025)
